The values below come from patent US20080021026A1, “BENZOTHIOPHENE INHIBITORS OF RHO KINASE” (priority 2006, published 2008).

The target in one assay is T1, recombinant N-terminal GST-tagged human Rho kinase 1 (ROCK1, amino acids 1-535) (Homo sapiens, UniProt Q13464).
T1 construct: ROCK1, amino acids 1-535; purchased Invitrogen Inc. PV-3691
T1 sequence (Q13464 1-535): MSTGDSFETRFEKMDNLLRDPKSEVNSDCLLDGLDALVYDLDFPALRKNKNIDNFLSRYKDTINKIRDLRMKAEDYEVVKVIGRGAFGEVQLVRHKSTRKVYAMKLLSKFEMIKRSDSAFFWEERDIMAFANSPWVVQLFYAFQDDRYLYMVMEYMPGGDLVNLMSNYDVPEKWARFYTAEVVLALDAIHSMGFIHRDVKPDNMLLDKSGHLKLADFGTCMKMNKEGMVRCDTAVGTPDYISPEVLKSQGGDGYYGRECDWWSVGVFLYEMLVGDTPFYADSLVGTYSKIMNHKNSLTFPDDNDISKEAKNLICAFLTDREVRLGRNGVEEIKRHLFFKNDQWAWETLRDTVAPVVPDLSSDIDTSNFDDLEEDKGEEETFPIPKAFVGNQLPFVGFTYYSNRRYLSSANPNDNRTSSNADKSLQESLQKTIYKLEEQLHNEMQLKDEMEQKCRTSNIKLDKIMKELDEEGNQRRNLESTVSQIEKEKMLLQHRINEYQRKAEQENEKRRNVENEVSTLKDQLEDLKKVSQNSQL
In words: In vitro Rho kinase assay (luciferase-based ATP consumption), ROCK1. Format: biochemical. Particulars: recombinant GST-tagged human ROCK1, luciferase-based ATP consumption; read-out: ROCK1 IC50. As to the method:
In Vitro Rho Kinase Assay
Rho kinase biochemical assays described below depend on firefly luciferase-based, indirect measurement of total ATP consumption by the kinase following incubation with substrate and ATP. 25 μl of Rho kinase assay buffer (20 mM Tris-HCL [pH 7.5], 1 mM MgCl2, 0.4 mM CaCl2, 0.15 mM EGTA, 0.1 mg/ml bovine serum albumin) containing 0.82 μg/ml of recombinant N-terminal GST-tagged human Rho kinase 1 (ROCK1, amino acids 1-535, Invitrogen Inc., cat. #PV-3691) or recombinant N-terminal GST-tagged human Rho kinase 2 (ROCK2, amino acids 1-552, Invitrogen Inc., cat #PV3759), 100 μg/ml S6 peptide substrate (related to amino acids 218-249 of the human 40S ribosomal protein S6, and suitable for ROCK1 or ROCK2, e.g. Upstate/Millipore Inc., cat #12-420), and 3 µM ATP are dispensed to wells of a 384 multi-well opaque plate. The plate is centrifuged for 30 seconds at approximately 200×g. 240 nl of test compound in DMSO is dispensed to each well by passive pin transfer. The lag phase of this in vitro kinase reaction permits addition of compounds soon after the reaction initiates. The reaction is allowed to incubate at 30° C. for 2 hours. The assay plates are sealed and maintained in a humidified environment. After 2 hours, 25 μl of easylite protein kinase assay reagent (Perkin-Elmer, Inc.) is dispensed. After an additional 10 minute incubation at room temperature (about 22° C.), luminescence activity is measured on a Molecular Devices Analyst multi-mode plate reader or other suitable plate reader. Kinase inhibition results in less ATP consumption, and therefore increased luminescence signal. Negative control activity is measured with DMSO lacking any test compound. The positive control is 2-methyl-1-(4-methylisoquinolin-5-ylsulfonyl)perhydro-1,4-diazepine hydrochloride (aka H-1152P, HCl salt). Efficacy is measured as a percentage of positive control activity. […] The designation NT means the cited example was not tested.
In the case of `Cc1c(-c2ccnc(N)n2)sc2ccc(Cl)cc12` [Example 1, 4-(5-Chloro-3-methylbenzo[b]thiophen-2-yl)pyrimidin-2-amine], the IC50 was less than 5 µM. For `Nc1nccc(-c2cc3ccccc3s2)n1` [Example 2, 4-(Benzo[b]thiophen-2-yl)pyrimidin-2-amine], the 50% inhibitory concentration (IC50) was less than 5 µM. Same read-out and setting: the figure for `Cc1c(-c2ccnc(N)n2)oc2ccccc12` [Example 3, 4-(3-Methylbenzofuran-2-yl)pyrimidin-2-amine] is less than 5 µM. Regarding `Cc1c(-c2ccncc2)sc2ccc(Cl)cc12` [Example 4, 4-(5-Chloro-3-methylbenzo[b]thiophen-2-yl)pyridine], the IC50 was greater than 5 µM. On the same count and under the same terms, the figure for `Cc1c(-c2ccnc(N)n2)sc2ccc(CNC(=O)C(NC(=O)OC(C)(C)C)C(C)C)cc12` (centres unmarked) [Example 293, CC(C)[C](NC(═O)OC(C)(C)C)C(═O)NCc1ccc2sc(c(C)c2c1)-c3ccnc(N)n3] is greater than 5 µM.

In another assay the target is T2, recombinant N-terminal GST-tagged human Rho kinase 2 (ROCK2, amino acids 1-552) (Homo sapiens, UniProt O75116).
T2 construct: ROCK2, amino acids 1-552; purchased Invitrogen Inc. PV3759
T2 sequence (O75116 1-552): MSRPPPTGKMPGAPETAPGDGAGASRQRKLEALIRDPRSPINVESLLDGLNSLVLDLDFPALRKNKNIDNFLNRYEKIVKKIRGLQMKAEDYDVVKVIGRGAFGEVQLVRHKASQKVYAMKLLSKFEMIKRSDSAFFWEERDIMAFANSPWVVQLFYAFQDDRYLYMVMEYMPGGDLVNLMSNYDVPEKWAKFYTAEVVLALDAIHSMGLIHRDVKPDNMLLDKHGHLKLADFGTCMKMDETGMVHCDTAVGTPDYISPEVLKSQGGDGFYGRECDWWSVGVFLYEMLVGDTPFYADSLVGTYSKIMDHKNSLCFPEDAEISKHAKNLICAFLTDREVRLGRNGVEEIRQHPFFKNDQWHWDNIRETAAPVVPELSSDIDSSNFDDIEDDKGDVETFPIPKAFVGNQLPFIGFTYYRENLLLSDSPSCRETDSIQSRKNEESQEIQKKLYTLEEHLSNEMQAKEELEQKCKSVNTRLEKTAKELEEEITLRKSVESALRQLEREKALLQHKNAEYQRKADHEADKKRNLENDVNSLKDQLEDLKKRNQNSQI
In words: In vitro Rho kinase assay (luciferase-based ATP consumption), ROCK2. It is filed as biochemical. Particulars: ROCK2 IC50, recombinant GST-tagged human ROCK2, luciferase-based ATP consumption. Summed up: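 Luciferase-based luminescence of leftover ATP after 2 h at 30 °C, where inhibition raises signal, reports activity of GST-tagged ROCK2 (aa 1-552) at 0.82 μg/ml. Conditions: S6 peptide 100 μg/ml, […], pH 7.5 Tris buffer. Results given as percent of H-1152P control activity.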
In the case of `C#CCN(Cc1ccc(Cl)cc1Cl)C(=O)c1ccc2sc(-c3ccnc(N)n3)c(C)c2c1` [Example 559, Cc1c(sc2ccc(cc12)C(═O)N(CC#C)Cc3ccc(Cl)cc3Cl)-c4ccnc(N)n4], the IC50 is greater than 5 µM.

The same assay, now with this note: recombinant GST-tagged human ROCK2, luciferase-based ATP consumption; read-out: ROCK2 IC50.
`Cc1c(-c2ccnc(N)n2)sc2ccc(Cl)cc12` [Example 1, 4-(5-Chloro-3-methylbenzo[b]thiophen-2-yl)pyrimidin-2-amine]: the IC50 was less than 5 µM. `Nc1nccc(-c2cc3ccccc3s2)n1` [Example 2, 4-(Benzo[b]thiophen-2-yl)pyrimidin-2-amine]: the concentration for half-maximal inhibition (IC50) was less than 5 µM. Still for that read-out and setting: the figure for `Cc1c(-c2ccnc(N)n2)oc2ccccc12` [Example 3, 4-(3-Methylbenzofuran-2-yl)pyrimidin-2-amine] is less than 5 µM; for `Cc1c(-c2ccncc2)sc2ccc(Cl)cc12` [Example 4, 4-(5-Chloro-3-methylbenzo[b]thiophen-2-yl)pyridine] it is greater than 5 µM. Regarding `COc1ccc(CCN(C)C(=O)c2ccc3sc(-c4ccnc(N)n4)c(C)c3c2)cc1OC` [Example 543, COc1ccc(CCN(C)C(═O)c2ccc3sc(c(C)c3c2)-c4ccnc(N)n4)cc1OC], the IC50 was greater than 5 µM. Regarding `Cc1c(-c2ccnc(N)n2)sc2ccc(C(=O)N3CCN(c4cccc(Cl)c4)CC3)cc12` [Example 544, Cc1c(sc2ccc(cc12)C(═O)N3CCN(CC3)c4cccc(Cl)c4)-c5ccnc(N)n5], the IC50 was less than 5 µM. Same read-out and setting: the figure for `Cc1c(-c2ccnc(N)n2)sc2ccc(C(=O)N3CCN(c4ccc(Cl)cc4)CC3)cc12` [Example 545, Cc1c(sc2ccc(cc12)C(═O)N3CCN(CC3)c4ccc(Cl)cc4)-c5ccnc(N)n5] is greater than 5 µM.

Consider `Cc1c(-c2ccnc(N)n2)sc2ccc(C(=O)N3CCN(c4ccc(F)cc4F)CC3)cc12` [Example 546, Cc1c(sc2ccc(cc12)C(═O)N3CCN(CC3)c4ccc(F)cc4F)-c5ccnc(N)n5], for which the IC50 was greater than 5 µM. Same read-out and setting: then `Cc1c(-c2ccnc(N)n2)sc2ccc(C(=O)N(Cc3cccnc3)Cc3cccnc3)cc12` [Example 547, Cc1c(sc2ccc(cc12)C(═O)N(Cc3cccnc3)Cc4cccnc4)-c5ccnc(N)n5], with less than 5 µM; and `Cc1c(-c2ccnc(N)n2)sc2ccc(C(=O)N3CCN(CCN4CCOCC4)CC3)cc12` [Example 548, Cc1c(sc2ccc(cc12)C(═O)N3CCN(CCN4CCOCC4)CC3)-c5ccnc(N)n5], with greater than 5 µM; and `Cc1c(-c2ccnc(N)n2)sc2ccc(C(=O)N3CCC(N(C)C(=O)OC(C)(C)C)C3)cc12` (centres unmarked) [Example 549, CN(C1CCN(C1)C(═O)c2ccc3sc(c(C)c3c2)-c4ccnc(N)n4)C(═O)OC(C)(C)C], with greater than 5 µM. Same read-out and setting: the figure for `CC(=O)c1ccc(N2CCN(C(=O)c3ccc4sc(-c5ccnc(N)n5)c(C)c4c3)CC2)cc1` [Example 550, CC(═O)c1ccc(cc1)N2CCN(CC2)C(═O)c3ccc4sc(c(C)c4c3)-c5ccnc(N)n5] is greater than 5 µM.

As for `CCN(CC)CCN(Cc1ccccc1)C(=O)c1ccc2sc(-c3ccnc(N)n3)c(C)c2c1` [Example 551, CCN(CC)CCN(Cc1ccccc1)C(═O)c2ccc3sc(c(C)c3c2)-c4ccnc(N)n4], the IC50 is less than 5 µM. In the case of `Cc1c(-c2ccnc(N)n2)sc2ccc(C(=O)N3CCN(c4ccc([N+](=O)[O-])cc4)CC3)cc12` [Example 552, Cc1c(sc2ccc(cc12)C(═O)N3CCN(CC3)c4ccc(cc4)[N+]([O−])═O)-c5ccnc(N)n5], the IC50 was less than 5 µM. In the case of `Cc1c(-c2ccnc(N)n2)sc2ccc(C(=O)N(C)Cc3cccc4ccccc34)cc12` [Example 553, CN(Cc1cccc2ccccc12)C(═O)c3ccc4sc(c(C)c4c3)-c5ccnc(N)n5], the IC50 was greater than 5 µM. Consider `Cc1ccc(Cl)cc1N1CCN(C(=O)c2ccc3sc(-c4ccnc(N)n4)c(C)c3c2)CC1` [Example 554, Cc1ccc(Cl)cc1N2CCN(CC2)C(═O)c3ccc4sc(c(C)c4c3)-c5ccnc(N)n5], for which the IC50 is less than 5 µM. On the same count and under the same terms, then `COc1cc(CN(C)C(=O)c2ccc3sc(-c4ccnc(N)n4)c(C)c3c2)cc(OC)c1OC` [Example 555, COc1cc(CN(C)C(═O)c2ccc3sc(c(C)c3c2)-c4ccnc(N)n4)cc(OC)c1OC], with greater than 5 µM. For the compound `Cc1c(-c2ccnc(N)n2)sc2ccc(C(=O)N(CCc3ccccc3)Cc3ccccc3)cc12` [Example 556, Cc1c(sc2ccc(cc12)C(═O)N(CCc3ccccc3)Cc4ccccc4)-c5ccnc(N)n5], the IC50 was greater than 5 µM. In the case of `Cc1c(-c2ccnc(N)n2)sc2ccc(C(=O)N(C)C(Cc3ccccc3)c3ccccc3)cc12` (centres unmarked) [Example 557, CN(C(Cc1ccccc1)c2ccccc2)C(═O)c3ccc4sc(c(C)c4c3)-c5ccnc(N)n5], the IC50 is greater than 5 µM.

In the case of `Cc1c(-c2ccnc(N)n2)sc2ccc(C(=O)N3CCC(O)(c4ccc(Cl)cc4)CC3)cc12` [Example 558, Cc1c(sc2ccc(cc12)C(═O)N3CCC(O)(CC3)c4ccc(Cl)cc4)-c5ccnc(N)n5], the IC50 was greater than 5 µM.

On to `CCN(C(=O)c1ccc2sc(-c3ccnc(N)n3)c(C)c2c1)C(Cc1ccccc1)c1ccco1` (centres unmarked) [Example 560, CCN(C(Cc1ccccc1)c2ccco2)C(═O)c3ccc4sc(c(C)c4c3)-c5ccnc(N)n5], for which the half-maximal inhibitory concentration (IC50) is less than 5 µM. For the compound `Cc1c(-c2ccnc(N)n2)sc2ccc(C(=O)N3CCN(C(=O)OC(C)(C)C)C[C@H]3CO)cc12` [Example 561, Cc1c(sc2ccc(cc12)C(═O)N3CCN(C[C@H]3CO)C(═O)OC(C)(C)C)-c4ccnc(N)n4], the IC50 was greater than 5 µM. The same measure, in the same setting: the figure for `Cc1c(-c2ccnc(N)n2)sc2ccc(C(=O)N3CCN(c4ccc(C(C)(C)C)cc4)CC3)cc12` [Example 562, Cc1c(sc2ccc(cc12)C(═O)N3CCN(CC3)c4ccc(cc4)C(C)(C)C)-c5ccnc(N)n5] is less than 5 µM; for `Cc1c(-c2ccnc(N)n2)sc2ccc(C(=O)N3CCN(Cc4ccc5c(c4)OCO5)CC3)cc12` [Example 563, Cc1c(sc2ccc(cc12)C(═O)N3CCN(CC3)Cc4ccc5OCOc5c4)-c6ccnc(N)n6] it is less than 5 µM. For the compound `COc1cc2c(cc1OC)CN(C(=O)c1ccc3sc(-c4ccnc(N)n4)c(C)c3c1)CC2` [Example 564, COc1cc2CCN(Cc2cc1OC)C(═O)c3ccc4sc(c(C)c4c3)-c5ccnc(N)n5], the concentration for half-maximal inhibition (IC50) was less than 5 µM. Still for that read-out and setting: the figure for `Cc1c(-c2ccnc(N)n2)sc2ccc(C(=O)N3CCN(c4ccc(C(F)(F)F)cc4)CC3)cc12` [Example 565, Cc1c(sc2ccc(cc12)C(═O)N3CCN(CC3)c4ccc(cc4)C(F)(F)F)-c5ccnc(N)n5] is greater than 5 µM; for `Cc1c(-c2ccnc(N)n2)sc2ccc(C(=O)N3CCN(c4cccc(C(F)(F)F)c4)CC3)cc12` [Example 566, Cc1c(sc2ccc(cc12)C(═O)N3CCN(CC3)c4cccc(c4)C(F)(F)F)-c5ccnc(N)n5] it is greater than 5 µM; for `Cc1c(-c2ccnc(N)n2)sc2ccc(C(=O)N3CCN(c4ccc(Cl)c(Cl)c4)CC3)cc12` [Example 567, Cc1c(sc2ccc(cc12)C(═O)N3CCN(CC3)c4ccc(Cl)c(Cl)c4)-c5ccnc(N)n5] it is greater than 5 µM. `Cc1c(-c2ccnc(N)n2)sc2ccc(C(=O)N3CCN(c4ccc(C(F)(F)F)cn4)CC3)cc12` [Example 568, Cc1c(sc2ccc(cc12)C(═O)N3CCN(CC3)c4ccc(cn4)C(F)(F)F)-c5ccnc(N)n5]: the half-maximal inhibitory concentration (IC50) was greater than 5 µM.

Take `Cc1c(-c2ccnc(N)n2)sc2ccc(C(=O)N3CCN(c4ccccc4Cl)CC3)cc12` [Example 569, Cc1c(sc2ccc(cc12)C(═O)N3CCN(CC3)c4ccccc4Cl)-c5ccnc(N)n5]: the IC50 is greater than 5 µM.

As for `COc1ccc(N2CCN(C(=O)c3ccc4sc(-c5ccnc(N)n5)c(C)c4c3)CC2)cc1OC` [Example 570, COc1ccc(cc1OC)N2CCN(CC2)C(═O)c3ccc4sc(c(C)c4c3)-c5ccnc(N)n5], the IC50 was greater than 5 µM. Still for that read-out and setting: the figure for `Cc1c(-c2ccnc(N)n2)sc2ccc(C(=O)N3CCCC(c4ccc(C(F)(F)F)cc4)C3)cc12` (centres unmarked) [Example 571, Cc1c(sc2ccc(cc12)C(═O)N3CCCC(C3)c4ccc(cc4)C(F)(F)F)-c5ccnc(N)n5] is greater than 5 µM.

For orientation: IC50 means the concentration that gives 50% inhibition.
